Data on 13 molecules can be found in ChEMBL document CHEMBL1201862, “PubChem BioAssay data set” (2004).

Test systems include SK-MEL-28; HT-29; A549; ACHN; SNB-75; SNB-19; OVCAR-4; LOX IMVI; SF-539; A498; Malme-3M; SK-OV-3; UO-31; OVCAR-3; EKVX; MDA-N; MCF7; DU-145; PC-3.
Assay in all cases: NCI-60 cell line screen, 48 h

Structures are written as SMILES.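 Five compound concentrations were applied to cells in 96-well plates for 48 hours; endpoints were derived by simple linear interpolation of the resulting dose-response curve. GI50 is the concentration that inhibits growth by half.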 Activity calls are given as the source filed them. Cut-off read from the data, not from the text of the source: active = GI50 up to about 1.1 µM and inactive = higher.

Turning to `O=C1C2=C(SCCS2)C(=O)c2ccccc21`, the GI50 in the assay on SK-MEL-28 is 1.85 µM (inactive); with HT-29 it was 2.18 µM (inactive); with A549, 1.9 µM (inactive); in the assay with ACHN it was 1.66 µM (inactive); in the assay with SNB-75, 1.67 µM (inactive); in the assay with SNB-19, 1.54 µM (inactive). In addition, the GI50 in the assay on OVCAR-4 was 1.65 µM (inactive); in the assay with LOX IMVI it was 0.902 µM (active); with SF-539, 1.72 µM (inactive); with A498, 2.03 µM (inactive); in the assay with Malme-3M, 1.81 µM (inactive); with SK-OV-3, 1.73 µM (inactive). For the same molecule, the GI50 with UO-31 is 1.93 µM (inactive); in the assay with OVCAR-3, 1.71 µM (inactive); in the assay with EKVX, 1.39 µM (inactive).
Turning to `C=CCN(N=O)C(=O)N(CCCCC(NC(C)=O)C(=O)NCc1ccccc1)Cc1ccccc1` (stereo not drawn), the GI50 was 44.1 µM (inactive) with SK-MEL-28; 19.5 µM (inactive) in the assay with HT-29; 38.5 µM (inactive) with A549; 42.9 µM (inactive) in the assay with ACHN; 38.4 µM (inactive) in the assay with SNB-75; 51.5 µM (inactive) in the assay with SNB-19. Moreover, the GI50 in the assay with OVCAR-4 was 25.9 µM (inactive); in the assay with LOX IMVI it was 21.7 µM (inactive); in the assay on SF-539, 38.1 µM (inactive); in the assay on A498, 42.9 µM (inactive); in the assay with Malme-3M, 20.2 µM (inactive); with SK-OV-3, > 100 µM (inactive). The GI50 in the assay with UO-31 is 29.6 µM (inactive); in the assay on OVCAR-3, 30.3 µM (inactive); in the assay on EKVX, 38.1 µM (inactive).
Turning to `O=C1NC(=O)C2C(=O)NC(=O)C1C2(c1ccccc1)c1cc[nH]c1` (stereo not drawn), the GI50 in the assay with SK-MEL-28, in the assay with HT-29, with A549, with ACHN, in the assay on SNB-75 and in the assay with SNB-19 was > 100 µM (inactive) each time. Besides, the GI50 in the assay with OVCAR-4, in the assay with LOX IMVI, with SF-539, in the assay on A498, with Malme-3M and with SK-OV-3 was > 100 µM (inactive) throughout. The GI50 with UO-31 is 74.6 µM (inactive); in the assay on OVCAR-3 it was > 100 µM (inactive); with EKVX it was > 100 µM (inactive).
As for `NC(=S)N/N=C(\C(=O)Nc1ccc(Cl)c(Cl)c1)C1=NN(c2ccccc2)C(c2cccc([N+](=O)[O-])c2)CC1=O` (stereo not drawn), the GI50 with SK-MEL-28 was 52.5 µM (inactive); in the assay with HT-29, 16.5 µM (inactive); in the assay with A549, 75.2 µM (inactive); in the assay with ACHN it was 39.2 µM (inactive); with SNB-75, 26.5 µM (inactive); with SNB-19, 35.6 µM (inactive). The GI50 is 20 µM (inactive) in the assay on OVCAR-4; 16.3 µM (inactive) with LOX IMVI; 23.8 µM (inactive) in the assay with SF-539; > 100 µM (inactive) in the assay with A498; > 100 µM (inactive) in the assay with Malme-3M; 30.5 µM (inactive) in the assay on SK-OV-3. Moreover, the GI50 with UO-31 was 30.3 µM (inactive); in the assay with OVCAR-3, 20.6 µM (inactive); with EKVX, > 100 µM (inactive).
As for `COC(=O)c1c(C)cccc1C1CN=NC12Cc1ccc(C)c(C)c1C2=O` (stereo not drawn), the GI50 in the assay with SK-MEL-28 is > 100 µM (inactive); in the assay on MDA-N it was 45.2 µM (inactive); with HT-29 it was 25.7 µM (inactive); with A549, 18.2 µM (inactive); with ACHN, 27.2 µM (inactive); with MCF7, 24.4 µM (inactive). Also, the GI50 with SNB-75 is 96.4 µM (inactive); in the assay on SNB-19 it was 50.9 µM (inactive); in the assay with DU-145, 54.6 µM (inactive); in the assay with OVCAR-4 it was 24.9 µM (inactive); in the assay on LOX IMVI it was 3.21 µM (inactive); with SF-539 it was 68.9 µM (inactive). Further, the GI50 with A498 was 36.3 µM (inactive); in the assay with Malme-3M, 28.6 µM (inactive); in the assay on UO-31 it was 42.4 µM (inactive); in the assay on OVCAR-3, 32.4 µM (inactive); in the assay on EKVX it was 12.2 µM (inactive).
Regarding `O=C(Cc1ccccc1[N+](=O)[O-])C(CO)c1ccccc1[N+](=O)[O-]` (stereo not drawn), the GI50 in the assay on SK-MEL-28 was > 100 µM (inactive); in the assay on HT-29 it was 26.2 µM (inactive); with A549, 72.1 µM (inactive); in the assay on ACHN, 38.2 µM (inactive); with SNB-75, 67.3 µM (inactive); with SNB-19 it was > 100 µM (inactive). The GI50 in the assay with OVCAR-4 was 96.4 µM (inactive); in the assay with LOX IMVI, 91.8 µM (inactive); with SF-539, > 100 µM (inactive); in the assay on A498, 80.4 µM (inactive); with Malme-3M, 79.4 µM (inactive); in the assay on SK-OV-3, > 100 µM (inactive). Moreover, the GI50 with UO-31 is 19.9 µM (inactive); with OVCAR-3 it was 66.1 µM (inactive); in the assay on EKVX, 70.6 µM (inactive).
On to `C/C(=N\NC(=S)NC(CCC(=O)O)C(=O)O)c1cnccn1` (stereo not drawn), for which the GI50 with SK-MEL-28, in the assay with HT-29, in the assay on A549, in the assay on ACHN, in the assay on SNB-75 and in the assay with SNB-19 was > 100 µM (inactive) throughout. For the same molecule, the GI50 with OVCAR-4, with LOX IMVI, in the assay on SF-539, in the assay on A498, in the assay on Malme-3M and in the assay on SK-OV-3 was > 100 µM (inactive) in each case. In addition, the GI50 in the assay with UO-31, with OVCAR-3 and with EKVX was > 100 µM (inactive) each time.
In the case of `CCOC(=O)C1=C(OC(OCC)C(CC)[Se]c2ccccc2)CCC1` (stereo not drawn), the GI50 in the assay on SK-MEL-28 is 32.3 µM (inactive); in the assay with HT-29, 25.1 µM (inactive); in the assay with A549 it was 77.4 µM (inactive); in the assay with ACHN it was 32.2 µM (inactive); with SNB-75, 25.3 µM (inactive); in the assay on SNB-19, 42.2 µM (inactive). In addition, the GI50 in the assay on OVCAR-4 was 13.2 µM (inactive); in the assay on LOX IMVI, 7.31 µM (inactive); in the assay on SF-539, 19.8 µM (inactive); in the assay with A498, 41.2 µM (inactive); in the assay on Malme-3M, 4.58 µM (inactive); in the assay on SK-OV-3 it was 92 µM (inactive). Besides, the GI50 was 28.9 µM (inactive) in the assay on UO-31, 23.7 µM (inactive) with OVCAR-3 and 29.2 µM (inactive) in the assay on EKVX.
Regarding `COC(=O)/C(=N\Nc1nnc(C)n1N)C(C#N)c1ccc(Cl)cc1` (stereo not drawn), the GI50 in the assay with SK-MEL-28, in the assay on HT-29, with A549, in the assay with ACHN, in the assay with SNB-75 and with SNB-19 was > 100 µM (inactive) each time. Further, the GI50 in the assay with OVCAR-4, in the assay on LOX IMVI, in the assay on SF-539, in the assay on A498, in the assay on Malme-3M and with SK-OV-3 was > 100 µM (inactive) throughout. Also, the GI50 in the assay on UO-31, in the assay on OVCAR-3 and in the assay on EKVX was > 100 µM (inactive) throughout.
Consider `N#CC(C(=O)/C(=N\Nc1nc(S)nn1N)C(C#N)c1ccc(Cl)cc1)c1ccc(Cl)cc1` (stereo not drawn), for which the GI50 in the assay with SK-MEL-28, with HT-29, in the assay on A549, in the assay with ACHN, with SNB-75 and in the assay with SNB-19 was > 100 µM (inactive) each time. The GI50 in the assay with OVCAR-4, in the assay with LOX IMVI, in the assay with SF-539, in the assay with A498, with Malme-3M and with SK-OV-3 was > 100 µM (inactive) each time. Also, the GI50 in the assay with UO-31, in the assay with OVCAR-3 and with EKVX was > 100 µM (inactive) in each case.
`Nc1nc(Cl)c2nnn(CC3CCC(CO)C3)c2n1` (stereo not drawn): the GI50 with SK-MEL-28, in the assay on MDA-N, in the assay on A549, with ACHN, with MCF7 and in the assay with SNB-75 was > 100 µM (inactive) each time. The GI50 in the assay on SNB-19, with DU-145, with OVCAR-4, in the assay with LOX IMVI, in the assay on SF-539 and with A498 was > 100 µM (inactive) each time. Moreover, the GI50 in the assay on PC-3, in the assay with SK-OV-3, with UO-31, in the assay on OVCAR-3 and with EKVX was > 100 µM (inactive) in each case.
Take `COc1ccc(/C=N\N2C(=O)Cc3ccccc32)cc1`: the GI50 in the assay with SK-MEL-28 was > 100 µM (inactive); in the assay with HT-29, > 100 µM (inactive); with A549, > 100 µM (inactive); with ACHN it was > 100 µM (inactive); in the assay on SNB-75, 17.9 µM (inactive); in the assay on SNB-19, > 100 µM (inactive). Moreover, the GI50 in the assay on OVCAR-4 was > 100 µM (inactive); with LOX IMVI, > 100 µM (inactive); with SF-539, 39 µM (inactive); in the assay with A498, > 100 µM (inactive); in the assay with Malme-3M, > 100 µM (inactive); in the assay with SK-OV-3, > 100 µM (inactive). Besides, the GI50 is 39.3 µM (inactive) in the assay on UO-31, > 100 µM (inactive) in the assay on OVCAR-3 and > 100 µM (inactive) with EKVX.
Regarding `N#Cc1c(=O)c2ccccc2n2ccccc12`, the GI50 is > 100 µM (inactive) in the assay with SK-MEL-28; > 100 µM (inactive) in the assay on MDA-N; > 100 µM (inactive) in the assay with HT-29; 29.8 µM (inactive) in the assay with A549; > 100 µM (inactive) with ACHN; > 100 µM (inactive) in the assay on SNB-75. The GI50 is 83.6 µM (inactive) in the assay on SNB-19; > 100 µM (inactive) with DU-145; > 100 µM (inactive) in the assay on OVCAR-4; > 100 µM (inactive) with LOX IMVI; > 100 µM (inactive) with A498; > 100 µM (inactive) in the assay on Malme-3M. The GI50 with PC-3 is 19.7 µM (inactive); in the assay with UO-31, 97.9 µM (inactive).
